Results from PMC10837422, “Early onset diagnosis in Alzheimer’s disease patients via amyloid-β oligomers-sensing probe in cerebrospinal fluid” (Nature Communications, 2024).

Assays:
[1] = target: T1, Amyloid-β 1–42 (Aβ1–42) fibrils (Homo sapiens, UniProt P05067); experiment: ThT fluorescence turn-on during Aβ[…] self-assembly (reference dye); assay type: binding
T1 construct: gene APP

[2] = target: T2, Amyloid-β 1–42 (Aβ1–42) oligomers (Homo sapiens, UniProt P05067); experiment: fluorescence saturation titration; hexamer fragment mapping assay; assay type: binding
T2 construct: gene APP; full-length Aβ1–42 synthetic peptide, oligomers
T2 sequence (P05067 672-713): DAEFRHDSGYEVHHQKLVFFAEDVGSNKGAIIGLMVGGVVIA

T1 sequence (P05067 672-713): as above

| Kd [2] | Compound | ThT fluorescence turn-on during Aβ1-42 self-assembly (reference dye) [1] |
| --- | --- | --- |
| – | Cc1ccc2c(c1)sc(-c1ccc(N(C)C)cc1)[n+]2C [ThT, thioflavin T] | matured Aβ aggregates formation, since ThT specifically detects cross-β-sheet via hydrophobic binding |
| 303 ± 94.7 nM | CC(C)CC1=[O+][B-](F)(F)OC(/C=C/c2ccc3nc(N(C)C)ccc3c2)=C1 [Q-OB] | – |
